Experimental data as given in patent US20080221116A1, “ISOXAZOLINE ALPHA 1a/1d ADRENORECEPTOR ANTAGONISTS” (priority 2006, published 2008).
Values joined by “and” are separate entries in the source; they are usually repeats but may differ in a detail not shown here. Equal entries are not always repeated. Where two headings read alike, the source gives them in different places.

Key:
α1a-AR = molecular target: T1, α1a-AR (Homo sapiens, UniProt P35348); test: α1-Adrenergic Receptor Binding Assay, 125I-HEAT radio-ligand binding, transfected COS-7 cell membranes, α1a subtype; conditions: COS-7 membranes
T1 construct: expressed in transfected cells; host or cells: COS-7 cells (African Green monkey kidney), membranes
T1 sequence (P35348 1-466): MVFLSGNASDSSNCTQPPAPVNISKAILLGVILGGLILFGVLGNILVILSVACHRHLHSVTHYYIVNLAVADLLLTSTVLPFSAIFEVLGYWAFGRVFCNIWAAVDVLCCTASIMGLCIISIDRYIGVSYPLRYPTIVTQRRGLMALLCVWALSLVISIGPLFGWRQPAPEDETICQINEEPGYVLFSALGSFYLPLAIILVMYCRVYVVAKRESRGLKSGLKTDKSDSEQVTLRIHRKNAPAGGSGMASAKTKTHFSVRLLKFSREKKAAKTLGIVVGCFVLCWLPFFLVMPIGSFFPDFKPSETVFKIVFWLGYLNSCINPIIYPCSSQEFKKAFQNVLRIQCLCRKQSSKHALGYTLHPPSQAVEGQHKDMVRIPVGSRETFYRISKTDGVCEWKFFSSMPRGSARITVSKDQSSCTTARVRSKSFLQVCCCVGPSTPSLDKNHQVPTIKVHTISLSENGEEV
Procedure, shortened: (§1)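 Competition binding of ¹²⁵I-HEAT ([…]) on membranes from COS-7 cells transfected with each human α1-AR subtype; membrane 0.5 ng/μL (α1a, α1b) or 13 ng/μL (α1d). Compound […] in half-log steps, triplicates, 1 hr at rt. Filtration and scintillation counting; Ki (nM) derived.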

α1d-AR = molecular target: T2, α1d-AR (Homo sapiens, UniProt P25100); test: α1-Adrenergic Receptor Binding Assay, 125I-HEAT radio-ligand binding, transfected COS-7 cell membranes, α1d subtype; conditions: COS-7 membranes
T2 construct: expressed in transfected cells; host or cells: COS-7 cells (African Green monkey kidney), membranes
T2 sequence (P25100 1-572): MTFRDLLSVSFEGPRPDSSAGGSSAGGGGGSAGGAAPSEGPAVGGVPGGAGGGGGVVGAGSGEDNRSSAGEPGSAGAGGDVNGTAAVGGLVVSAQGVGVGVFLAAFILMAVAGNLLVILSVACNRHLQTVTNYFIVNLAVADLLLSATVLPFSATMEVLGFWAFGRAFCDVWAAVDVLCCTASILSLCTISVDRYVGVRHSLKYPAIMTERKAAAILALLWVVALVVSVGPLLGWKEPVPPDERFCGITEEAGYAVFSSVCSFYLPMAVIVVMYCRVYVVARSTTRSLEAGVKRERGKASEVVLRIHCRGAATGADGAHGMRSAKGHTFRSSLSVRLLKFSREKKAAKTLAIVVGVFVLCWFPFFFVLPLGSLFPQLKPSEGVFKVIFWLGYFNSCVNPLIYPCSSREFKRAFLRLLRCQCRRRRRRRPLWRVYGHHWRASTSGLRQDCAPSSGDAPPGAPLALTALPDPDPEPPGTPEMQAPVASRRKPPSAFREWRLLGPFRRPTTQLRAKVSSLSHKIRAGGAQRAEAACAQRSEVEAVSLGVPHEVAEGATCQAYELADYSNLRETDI
Procedure, shortened: as §1

α1b-AR = molecular target: T3, α1b-AR (Homo sapiens, UniProt P35368); test: α1-Adrenergic Receptor Binding Assay, 125I-HEAT radio-ligand binding, transfected COS-7 cell membranes, α1b subtype; conditions: COS-7 membranes
T3 construct: expressed in transfected cells; host or cells: COS-7 cells (African Green monkey kidney), membranes
T3 sequence (P35368 1-520): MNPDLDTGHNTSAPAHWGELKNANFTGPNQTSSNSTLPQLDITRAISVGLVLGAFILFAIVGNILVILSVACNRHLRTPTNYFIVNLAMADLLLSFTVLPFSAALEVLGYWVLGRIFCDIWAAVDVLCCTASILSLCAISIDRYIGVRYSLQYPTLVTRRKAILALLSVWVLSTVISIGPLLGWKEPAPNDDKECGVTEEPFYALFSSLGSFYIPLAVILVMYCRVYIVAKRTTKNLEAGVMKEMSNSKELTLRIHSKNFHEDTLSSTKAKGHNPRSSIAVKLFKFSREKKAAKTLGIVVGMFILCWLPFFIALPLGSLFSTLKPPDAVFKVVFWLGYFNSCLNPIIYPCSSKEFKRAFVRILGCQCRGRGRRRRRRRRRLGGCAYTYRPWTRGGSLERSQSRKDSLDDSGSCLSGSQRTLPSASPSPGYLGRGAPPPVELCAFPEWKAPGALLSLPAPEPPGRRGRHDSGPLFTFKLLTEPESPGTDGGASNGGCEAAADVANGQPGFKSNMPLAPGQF
Procedure, shortened: as §1

D2 = D2 (Homo sapiens, UniProt P14416); conditions: as described in the article; cited from earlier work
5-HT1A site = molecular target: T4, 5-HT1A site (Homo sapiens, UniProt P08908); conditions: as described in the article; cited from earlier work
T4 sequence (P08908 1-422): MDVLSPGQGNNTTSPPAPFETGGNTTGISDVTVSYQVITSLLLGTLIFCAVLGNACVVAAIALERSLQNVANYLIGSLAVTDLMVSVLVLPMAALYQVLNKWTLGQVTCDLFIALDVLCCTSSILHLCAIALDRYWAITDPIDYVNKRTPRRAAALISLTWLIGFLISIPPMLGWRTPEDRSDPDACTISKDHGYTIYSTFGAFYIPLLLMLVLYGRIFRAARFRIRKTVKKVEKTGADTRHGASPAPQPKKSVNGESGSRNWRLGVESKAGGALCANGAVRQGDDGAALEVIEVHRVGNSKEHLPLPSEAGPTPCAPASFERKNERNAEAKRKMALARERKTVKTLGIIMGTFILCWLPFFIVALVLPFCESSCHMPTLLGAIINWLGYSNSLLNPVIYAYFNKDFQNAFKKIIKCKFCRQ

[1] = as described in the article; cited from earlier work
[2] = average value, read-out: Alpha 1 Ki α1a (1) Average Value
[3] = individual values, read-out: Alpha 1 Ki α1a (2) Individual Values
[4] = average value, read-out: Alpha 1 Ki α1d (1) Average Value
[5] = individual values, read-out: Alpha 1 Ki α1d (2) Individual Values
[6] = average value, read-out: Alpha 1 Ki α1b (1) Average Value
[7] = individual values, read-out: Alpha 1 Ki α1b (2) Individual Values

Chain of D2 (P14416 whole entry): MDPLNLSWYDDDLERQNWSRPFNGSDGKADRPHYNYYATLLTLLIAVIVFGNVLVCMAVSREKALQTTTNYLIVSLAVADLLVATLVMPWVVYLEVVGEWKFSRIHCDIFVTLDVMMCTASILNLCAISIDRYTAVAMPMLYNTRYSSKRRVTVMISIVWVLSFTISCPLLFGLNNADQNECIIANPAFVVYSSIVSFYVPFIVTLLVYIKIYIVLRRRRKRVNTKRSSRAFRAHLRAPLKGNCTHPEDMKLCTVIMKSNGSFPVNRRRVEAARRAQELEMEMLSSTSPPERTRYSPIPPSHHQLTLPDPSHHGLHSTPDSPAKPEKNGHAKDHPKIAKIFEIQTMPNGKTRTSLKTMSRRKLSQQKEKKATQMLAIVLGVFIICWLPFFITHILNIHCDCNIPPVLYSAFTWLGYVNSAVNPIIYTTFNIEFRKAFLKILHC

Compound	Ki (α1a-AR; [2])	Ki (α1a-AR; [3])	Ki (α1d-AR; [4])	Ki (α1d-AR; [5])	Ki (α1b-AR; [6])	Ki (α1b-AR; [7])	melting point	D2 binding (D2)	binding affinity for the 5-HT1A site (5-HT1A site)	Conditioned Avoidance Response (CAR) activity [1]
CC(C)Oc1ccccc1N1CCN(CC2CC(C(=O)N3CCC(c4ccccc4)(c4ccccc4)CC3)=NO2)CC1 (stereo not shown) [Compound 31, (4,4-diphenyl-piperidin-1-yl)-{5-[4-(2-isopropoxy-phenyl)-piperazin-1-ylmethyl]-4,5-dihydro-isoxazol-3-yl}-methanone]	25 nM	25 nM	9.6 nM	9.6 nM	248 nM	248 nM	61 to 63 °C			
CC(C)Oc1ccccc1N1CCN(CC2CC(C(=O)N3CCC(Oc4ccccn4)CC3)=NO2)CC1 (stereo not shown) [Compound 32, {5-[4-(2-isopropoxy-phenyl)-piperazin-1-ylmethyl]-4,5-dihydro-isoxazol-3-yl}-[4-(pyridin-2-yloxy)-piperidin-1-yl]-methanone]	41.7 nM	41.7 nM	44.6 nM	44.6 nM	264 nM	264 nM				
CC(C)Oc1ccccc1N1CCN(CC2CC(C(=O)N3CCC(Oc4ccc(Cl)cc4)CC3)=NO2)CC1 (stereo not shown) [Compound 34, [4-(4-chloro-phenoxy)-piperidin-1-yl]-{5-[4-(2-isopropoxy-phenyl)-piperazin-1-ylmethyl]-4,5-dihydro-isoxazol-3-yl}-methanone]	40 nM	40 nM	27 nM	27 nM	255 nM	255 nM				
CC(C)Oc1ccccc1N1CCN(CC2CC(CO)=NO2)CC1 (stereo not shown) [compound 49, 4,5-dihydro-5-[[4-[2-(1-methylethoxy)phenyl]-1-piperazinyl]methyl]-3-isoxazolemethanol]								lack	lack	strong
CC(C)Oc1ccccc1N1CCN(CC2CC(CN3CCCCC3=O)=NO2)CC1.O.[O-][Cl+3]([O-])([O-])O (stereo not shown) [compound 50, 1-[[4,5-dihydro-5-[[4-[2-(1-methylethoxy)phenyl]-1-piperazinyl]methyl]-3-isoxazolyl]methyl]-piperidin-2-one perchlorate hydrate]									moderately high	not so active

Further lines, with some results ahead:

Ki (α1a-AR; [2])	Ki (α1a-AR; [3])	Ki (α1d-AR; [4])	Ki (α1d-AR; [5])	Ki (α1b-AR; [6])	Ki (α1b-AR; [7])	melting point	Compound	D2 binding (D2)	binding affinity for the 5-HT1A site (5-HT1A site)	Conditioned Avoidance Response (CAR) activity [1]
6.8 nM	2.2 nM and 11.4 nM	8.2 nM	5.6 nM and 10.8 nM	672 nM	1010 nM and 333 nM		CC(C)Oc1ccccc1N1CCN(CC2CC(C(=O)N3CCC(Oc4ccccc4)CC3)=NO2)CC1 (stereo not shown) [Compound 29, {5-[4-(2-isopropoxy-phenyl)-piperazin-1-ylmethyl]-4,5-dihydro-isoxazol-3-yl}-(4-phenoxy-piperidin-1-yl)-methanone]			
3.4 nM	3.4 nM	4.5 nM	5.8 nM and 3.2 nM	173 nM	164 nM and 183 nM	74 to 76 °C	CC(C)Oc1ccccc1N1CCN(CC2CC(C(=O)N3CCC(S(=O)(=O)c4ccccc4)CC3)=NO2)CC1 (stereo not shown) [Compound 30, (4-benzenesulfonyl-piperidin-1-yl)-{5-[4-(2-isopropoxy-phenyl)-piperazin-1-ylmethyl]-4,5-dihydro-isoxazol-3-yl}-methanone]			
19 nM	19 nM	20 nM	20 nM	254 nM	254 nM		COc1ccccc1C1CCN(C(=O)C2=NOC(CN3CCN(c4ccccc4OC(C)C)CC3)C2)CC1 (stereo not shown) [Compound 33, {5-[4-(2-isopropoxy-phenyl)-piperazin-1-ylmethyl]-4,5-dihydro-isoxazol-3-yl}-[4-(2-methoxy-phenyl)-piperidin-1-yl]-methanone]			
3.65 nM	1.6 nM and 5.7 nM	9 nM	11 nM and 7 nM	212 nM	183 nM and 242 nM		CC(C)Oc1ccccc1N1CCN(CC2CC(C(=O)N3CCCC3)=NO2)CC1 (stereo not shown) [Compound 35, {5-[4-(2-isopropoxy-phenyl)-piperazin-1-ylmethyl]-4,5-dihydro-isoxazol-3-yl}-pyrrolidin-1-yl-methanone]			
